Source: ChEMBL document CHEMBL4665675 (J Med Chem, 2020)
One block for each compound: values may come before it. Where a SMILES comes first, the peptide text is derived from it. [ ]: non-standard residue; d: D form. The star is where a group is joined. Cholesteryloxycarbonyl = CC(C)CCC[C@@H](C)[C@H]1CC[C@H]2[C@@H]3CC=C4C[C@@H](OC(=O)*)CC[C@]4(C)[C@H]3CC[C@]12C; PEG3 = NCCOCCOCCOCCC(=O)O; Aib = CC(C)(N)C(=O)O; βAla = NCCC(=O)O

Assays:
A549 [1] = assay: Cytotoxicity against human A549 cells by MTT assay; assay type: functional, cell-based
L1210 = assay: Cytotoxicity against mouse L1210 cells incubated for 24 hrs; assay type: functional, cell-based; details: L1210, 24 h
Bos taurus = species: Bos taurus; assay: Inhibition of [3H]colchicine binding to bovine brain tubulin at 5 uM incubated for 10 mins by DEAE-cellulose filter method relative to control
NALM-6 [2] = assay: Induction of apoptosis in human Nalm-6 cells at 5 nM incubated for 72 hrs by flow cytometric method relative to control; assay type: functional
BJAB [3] = assay: Induction of apoptosis in human BJAB cells at 5 nM incubated for 72 hrs by flow cytometric method relative to control; assay type: functional
MCF7 = assay: Induction of apoptosis in human MCF7 cells at 3 nM incubated for 72 hrs by flow cytometric method; assay type: functional
KB 3-1 = assay: Antiproliferative activity against human KB-31 cells incubated for 96 hrs by spectrophotometric method; assay type: functional, cell-based; details: KB 3-1, 96 h
[4] = Antiproliferative activity against human KB-8511 cells incubated for 96 hrs by spectrophotometric method; assay type: functional, cell-based; details: KB-ChR-8-5-11, 96 h
[5] = Inhibition of porcine tubulin polymerization by UV/visible spectrophotometry; set-up: species or system Sus scrofa
P388 = assay: Antiproliferative activity against mouse P388 cells incubated for 72 hrs by Coulter counter method; assay type: functional, cell-based; details: P388, 72 h
MIA PaCa-2 = assay: Cytotoxicity against human Mia PaCa-2 cells incubated for 48 hrs by MTT assay; assay type: functional, cell-based; details: MIA PaCa-2, 48 h
BXPC-3 = assay: Cytotoxicity against human BxPC-3 cells incubated for 48 hrs by MTT assay; assay type: functional, cell-based; details: BXPC-3, 48 h
A549 [6] = assay: Cytotoxicity against human A549 cells incubated for 48 hrs by MTT assay; assay type: functional, cell-based; details: A549, 48 h
PC-3 = assay: Cytotoxicity against human PC-3 cells incubated for 48 hrs by MTT assay; assay type: functional, cell-based; details: PC-3, 48 h
HT-29 = assay: Cytotoxicity against human HT-29 cells incubated for 48 hrs by MTT assay; assay type: functional, cell-based; details: HT-29, 48 h
[7] = Cytotoxicity against human HGF-1 cells incubated for 48 hrs by MTT assay; assay type: cell-based; details: HGF1, 48 h
HEK293 [8] = assay: Cytotoxicity against HEK293 cells incubated for 48 hrs by MTT assay; assay type: cell-based; details: Homo sapiens, HEK293, 48 h
[9] = Cytotoxicity against human BHP-1 cells incubated for 48 hrs by MTT assay; assay type: cell-based; details: BHP1, 48 h
HeLa = assay: Cytotoxicity against human HeLa cells after 24 to 72 hrs by Cell Titer Blue assay; assay type: cell-based
Rattus norvegicus = species: Rattus norvegicus; assay: Inhibition of [3H]colchicine binding to rat brain tubulin at 25 uM relative to control
[10] = Inhibition of DNA topoisomerase2 (unknown origin); set-up: species or system Homo sapiens
BJAB [11] = assay: Antiproliferative activity against human BJAB cells incubated for 24 hrs by cell counting based method; assay type: functional
NALM-6 [12] = assay: Antiproliferative activity against human Nalm-6 cells incubated for 24 hrs by cell counting based method; assay type: functional; details: NALM-6, 24 h
BJAB [13] = assay: Cytotoxicity against human BJAB cells; assay type: functional, cell-based
HBL-100 = assay: Cytotoxicity against human HBL100 cells; assay type: functional, cell-based
K562 = assay: Cytotoxicity against human K562 cells; assay type: functional, cell-based
HaCaT = assay: Cytotoxicity against human HaCaT cells; assay type: functional, cell-based
Jurkat = assay: Cytotoxicity against human Jurkat cells; assay type: functional, cell-based
SK-BR-3 [14] = assay: Cytotoxicity against human SK-BR-3 cells assessed as reduction in cell viability incubated for 72 hrs by flow cytometry; assay type: functional, cell-based; details: SK-BR-3, 72 h
SK-BR-3 [15] = assay: Cytotoxicity against human SK-BR-3 cells assessed as reduction in cell viability incubated for 72 hrs in presence of trastuzumab-iCME by flow cytometry; assay type: functional, cell-based; details: SK-BR-3, 72 h
HEK293 [16] = assay: Cytotoxicity against HEK293 cells; assay type: cell-based; details: Homo sapiens

Structure (SMILES): COc1cc2c(c(OC)c1OC)-c1ccc(OC)c(=O)cc1[C@@H](NC(=O)CCCCCCC(=O)C1C3CC4CC(C3)CC1C4)CC2 (some centres not stated)
IC50 (A549 [1]): ≤ 5 nM

Structure (SMILES): COc1c2c(cc3c1-c1ccc(OC)c(=O)cc1[C@@H](NC(C)=O)CC3)OCO2
IC50 (L1210): 20 nM
inhibition (Bos taurus): 54%

Structure (SMILES): C=C1Cc2cc(OC)c(OC)c(OC)c2-c2ccc(OC)c(=O)cc21
Activity (NALM-6 [2]): 71%
Activity (BJAB [3]): 48%
Activity (MCF7): 62%

Structure (SMILES): COc1cc2c(c(OC)c1OC)-c1ccc(OC)c(=O)cc1[C@@H](NC(C)=O)CC2 [COLCHICINE]
IC50 (KB 3-1): 9 nM
IC50 [4]: 540 nM
IC50 [5]: 3900 nM
IC50 (P388): 29 nM
IC50 (MIA PaCa-2): 42 nM
IC50 (BXPC-3): 42 nM
IC50 (A549 [6]): 42 nM
IC50 (PC-3): 42 nM
IC50 (HT-29): 42 nM
IC50 [7]: 42 nM
IC50 (HEK293 [8]): 42 nM
IC50 [9]: 42 nM
IC50 (HeLa): 58 nM

inhibition (Rattus norvegicus): 87%
Structure (SMILES): COc1cc2c(c(OC)c1OC)-c1cccc(=O)cc1[C@@H](NC(C)=O)CC2

IC50 [10]: 9000 nM
Structure (SMILES): CSc1ccc2c(cc1=O)[C@@H](NC(C)=O)CCc1cc(O)c(O)c(O)c1-2

Structure (SMILES): COc1cc2c(c(OC)c1OC)C1=C(C=C(O)C(=O)CC1)CO[C@@H]2C
IC50 (BJAB [11]): 1000 nM
IC50 (NALM-6 [12]): 1000 nM

Structure (SMILES): CCCCCCCCCCCCCCCC(=O)OCc1cn([C@H]2CCc3cc(OC)c(OC)c(OC)c3-c3ccc(OC)c(=O)cc32)nn1
IC50 (BJAB [13]): 3.5 nM
IC50 (HBL-100): 3.5 nM
IC50 (K562): 3.5 nM
IC50 (HaCaT): 3.5 nM
IC50 (Jurkat): 3.5 nM

Structure (SMILES): CC(C)CCC[C@@H](C)[C@H]1CC[C@H]2[C@@H]3CC=C4C[C@@H](OC(=O)NCCC(=O)NCCC(=O)N[C@@H](CCC(=O)O)C(=O)N[C@@H](CCC(=O)O)C(=O)NCCOCCOCCOCCC(=O)NCCOCCOCCOCCC(=O)NC(C)(C)C(=O)NC(C)(C)C(=O)NC(C)(C)C(=O)NC(C)(C)C(=O)N[C@@H](Cc5c[nH]c6ccccc56)C(=O)N[C@@H](Cc5ccc(O)cc5)C(=O)N[C@@H](C)C(=O)N[C@@H](Cc5c[nH]c6ccccc56)C(=O)N[C@@H](Cc5ccc(O)cc5)C(=O)N[C@@H](C)C(=O)N[C@@H](Cc5c[nH]c6ccccc56)C(=O)N[C@@H](Cc5ccc(O)cc5)C(=O)N5CCC[C@H]5C(=O)N5CCC[C@H]5C(=O)N[C@H](C(=O)N[C@H](C(N)=O)C(C)C)C(C)C)CC[C@]4(C)[C@H]3CC[C@]12C ({Cholesteryloxycarbonyl-βAla-βAla}-EE[PEG3][PEG3][Aib][Aib][Aib][Aib]WYAWYAWYPPVV-NH2)
IC50 (SK-BR-3 [14]): > 10000 nM
IC50 (SK-BR-3 [15]): 0.11 nM

Structure (SMILES): COc1cc2c(c(OC)c1OC)-c1ccc(OC)c(=O)cc1[C@@H](NC(=O)CCCCCC(=O)OC1C3CC4CC(C3)CC1C4)CC2 (some centres not stated)
IC50 (A549 [1]): ≤ 5 nM

Structure (SMILES): COc1cc2c(c(OC)c1OC)-c1ccc3[nH]c(C)c(C)c3c1[C@@H](NC(C)=O)CC2
IC50 (HEK293 [16]): 2000 nM

Structure (SMILES): CCCCCCCCCCCCCCCCCC(=O)OCc1cn([C@H]2CCc3cc(OC)c(OC)c(OC)c3-c3ccc(OC)c(=O)cc32)nn1
IC50 (BJAB [13]): 3.5 nM
IC50 (HBL-100): 3.5 nM
IC50 (K562): 3.5 nM
IC50 (HaCaT): 3.5 nM
IC50 (Jurkat): 3.5 nM
